In ChEMBL document CHEMBL3352493, “Xylarianaphthol-1, a novel dinaphthofuran derivative, activates p21 promoter in a p53-independent manner” (Bioorg Med Chem Lett, 2014):
Active and inactive are the calls of the source. No cut-off for these calls is given here.

Experiments:
[1] = system: MG-63; test: Induction of p53-independent p21 promoter activation (unknown origin) transfected in human MG63 cells expressing luciferase reporter gene by luciferase reporter gene assay; type: cell-based
[2] = system: MG-63; test: Increase in p21 protein expression in wild-type human MG63 cells at 0.01 to 0.3 uM by Western blotting method; type: functional, cell-based
[3] = system: MG-63; test: Induction of p53-independent p21 promoter activation (unknown origin) transfected in human MG63 cells expressing luciferase reporter gene at 0.3 uM by luciferase reporter gene assay relative to control; type: cell-based

SMILES: COc1cccc2c1c(O)cc1oc3c(ccc4cccc(O)c43)c12
- Activity [1]: Dose-dependent effect
- Activity [2]: Active
- fold change (FC) [3]: 2.5
